The values below come from paper PMC4188013, “Insights into the binding of PARP inhibitors to the catalytic domain of human tankyrase-2” (Acta Crystallographica Section D: Biological Crystallography, 2014).

Read-outs that look alike come from different tables or passages of the source.

Experiment [1] concerns the target T1, PARP domain of TNKS2 (Homo sapiens, UniProt Q9H2K2).
T1 construct: His6; made in house; host or cells: Escherichia coli BL-21(DE3) RIPL
Put plainly: In vitro PARP assay, IC50 on TNKS2 (this study). The class given is biochemical. Conditions: values from this study. Here is the method:
Purified PARP domain of TNKS2 and either BSA or recombinant full-length 3BP2 protein were incubated in PARP reaction buffer (50 mM Tris pH 8.0, 4 mM MgCl2, 0.2 mM dithiothreitol) containing 0.5 mM NAD^+ as an exogenous source of ADP-ribose for 30 min at 25°C with or without PARP inhibitors. Reactions were stopped by adding sample buffer to the tubes. Samples were boiled and separated on a 4–20% SDS–PAGE gel. The gel was stained with Coomassie Blue, dried on a gel dryer and used for autoradiography analysis (Fig. 2 ▶).

In experiment [2] the test system is PARP1. Also noted: method as in not given. Conditions: cited from earlier work.
Experiment [3] concerns TNKS1. Also noted: method as in not given. As to conditions: IC50 values available from the literature; ref not given; cited from earlier work.
Experiment [4] relates to PARP2. Also noted: method as in not given. Conditions: IC50 values available from the literature; ref not given; cited from earlier work.
Experiment [5] has as its system TNKS2. Also noted: method as in not given. As to conditions: IC50 values available from the literature; ref not given; cited from earlier work.
Setting [6] is: IC50 values available from the literature, ref not given.

T1 sequence (Q9H2K2 959-1164): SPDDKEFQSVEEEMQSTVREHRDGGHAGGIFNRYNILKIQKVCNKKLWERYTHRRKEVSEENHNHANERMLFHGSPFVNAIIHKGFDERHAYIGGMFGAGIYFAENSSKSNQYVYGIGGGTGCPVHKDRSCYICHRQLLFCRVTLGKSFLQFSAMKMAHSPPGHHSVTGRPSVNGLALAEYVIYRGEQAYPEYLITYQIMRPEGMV

As for `Oc1cccc2c(O)nccc12` [1,5-IQD, 1,5-Isoquinolinediol], in experiment [1], the midpoint of inhibition, the IC50, lay at 1500 nM.
Regarding `O=C1NCCc2c(OCCCCN3CCCCC3)cccc21` [DPQ], the half-inhibitory concentration (IC50) in experiment [1] was 2800 nM; in experiment [2], 23 nM; in experiment [3] it was 33 nM.
Take `Cc1nc2c(c(=O)[nH]1)CSCC2` [DR-2313, 2-Methyl-3,5,7,8-tetrahydro-4H-thiopyrano[4,3-d]pyrimidin-4-one]: the IC50 in experiment [1] was 3000 nM; in experiment [4] it was 240 nM.
Consider `Cc1nc2c(O)cccc2c(=O)[nH]1` [NU-1025, 8-Hydroxy-2-methyl-3-hydro-quinazolin-4-one], for which the IC50 in experiment [2] (setting [6]) is 400 nM.
On to `C[C@]1(c2nc3c(C(N)=O)cccc3[nH]2)CCCN1` [ABT-888, 2-[(R)-2-Methylpyrolidin-2-yl]-1H-benzimidazole-4-carboxamide], for which the IC50 is […] in experiment [4], […] in experiment [2], […] in experiment [3] and […] in experiment [5].
Turning to `Nc1ccc2oc(=O)ccc2c1I` [INH2BP, 5-Iodo-6-amino-1,2-benzopyrone], the IC50 is 4750 nM in experiment [4] and 5070 nM in experiment [2] (setting [6]).
For `NC(=O)c1cccc2ncc(-c3ccc(Cl)cc3)nc12` [3,4-CPQ-5C, 3-(4-Chlorophenyl)-quinoxaline-5-carboxamide], the half-maximal inhibitory concentration (IC50) in experiment [1] is 3600 nM.
With `NC(=O)c1cccc(N)c1` [3-AB, 3-Amino-benzamide], the IC50 in experiment [1] is over 30000 nM; in experiment [2] (setting [6]), 33000 nM.
Take `Nc1cccc2c(=O)[nH]ccc12` [5-AIQ, 5-Aminoisoquinolinone]: the half-inhibitory concentration (IC50) in experiment [1] was 10000 nM; in experiment [2], 250 nM.
In experiment [1], `NC(=O)c1ccc(I)c([N+](=O)[O-])c1` [BSI-201, 4-Iodo-3-nitrobenzamide] displayed an IC50 of 416 nM.

In general, IC50 refers to the concentration needed to halve the response being measured.
